# Target: bacterial protein synthesis (S30 extract from quinolone-succeptable Streptococcus pneumoniae ATCC 46919)
# Test: Translation assay, firefly luciferase reporter system with S30 Streptococcus pneumoniae extract
# Format: biochemical
# Details: luciferase mRNA, read-out: IC50, concentration causing 50% inhibition of bacterial protein synthesis
# Experimental: Bacterial protein synthesis inhibitory activity of representative compounds of this invention having formula (I) and the commercially-available antibacterials in TABLE 2 was determined by translation assays using the firefly luciferase reporter system described by Murray et al., (2001), “Staphylococcus aureus Cell Extract Transcription-Translation Assay: Firefly Luciferase Reporter System for Evaluating Protein Translation Inhibitors,” Antimicrob. Agents Chemother. 45(6): 1900-1904, but replacing the Staphylococcus aureus S30 extract described therein with S30 Streptococcus pneumoniae extract from quinolone-succeptable Streptococcus pneumoniae ATCC 46919, and replacing plasmid coding for the luciferase gene with mRNA (encoding produced by in vitro transcription from the plasmid pAS10rbs3) which encoded the luciferase gene with an upstream Streptococcus pneumoniae promoter and Shine-Dalgarno site.
compound,measurement,value
CC(=O)NC[C@H]1CN(c2ccc(N3CCOCC3)c(F)c2)C(=O)O1 [Linezolid],IC50,~3000 nM

# From US7737159B2, “Antibacterial compounds” (Abbott Laboratories, priority 2004, dated 2010)
